Measured values taken from patent US20250064941A1, “SIGLEC LIGANDS, CONJUGATES, AND METHODS OF USE THEREOF” (Osprey Biopharmaceuticals, Inc., priority 2023, published 2025).

Experiments:
[1] = biological target: T1, mouse Siglec-2-Fc-Avi (CD22) (Mus musculus, UniProt P35329); test: SPR binding affinity to mouse CD22; settings: steady-state analysis
T1 construct: made in house
T1 sequence (P35329 22-708 limits assumed): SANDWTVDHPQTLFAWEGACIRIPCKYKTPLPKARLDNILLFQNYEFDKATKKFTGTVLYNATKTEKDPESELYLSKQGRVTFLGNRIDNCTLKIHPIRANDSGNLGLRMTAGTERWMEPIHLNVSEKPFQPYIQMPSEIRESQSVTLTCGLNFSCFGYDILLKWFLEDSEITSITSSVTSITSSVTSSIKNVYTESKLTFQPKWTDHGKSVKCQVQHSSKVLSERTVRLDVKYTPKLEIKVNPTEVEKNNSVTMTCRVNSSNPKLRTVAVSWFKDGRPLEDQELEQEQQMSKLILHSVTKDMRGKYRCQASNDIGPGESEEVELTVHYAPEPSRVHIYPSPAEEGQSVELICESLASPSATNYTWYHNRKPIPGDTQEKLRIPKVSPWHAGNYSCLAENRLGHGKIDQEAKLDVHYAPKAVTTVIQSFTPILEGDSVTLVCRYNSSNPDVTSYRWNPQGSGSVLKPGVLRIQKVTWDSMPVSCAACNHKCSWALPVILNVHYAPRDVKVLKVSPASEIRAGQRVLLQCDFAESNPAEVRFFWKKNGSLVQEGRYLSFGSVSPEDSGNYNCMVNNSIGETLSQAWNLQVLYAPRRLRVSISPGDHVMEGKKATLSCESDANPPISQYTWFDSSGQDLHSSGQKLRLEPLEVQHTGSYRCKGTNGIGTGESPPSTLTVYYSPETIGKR
Outline: (§1)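 Biotinylated CD22 desialylated with SialoExo (4 h, 37° C) before capture on streptavidin chip. Running buffer 10 mM HEPES, 150 mM NaCl, 0.05% Tween-20, pH 7.5, 1% DMSO, with DMSO solvent correction; 120 s dissociation. Compound affinities from steady-state analysis.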

[2] = biological target: T2, human Siglec-2/CD22 protein (Homo sapiens, UniProt P20273); test: SPR binding affinity to human CD22; settings: steady-state analysis
T2 construct: purchased Acro Biosystems SI2-H82E3
T2 sequence (P20273 20-847): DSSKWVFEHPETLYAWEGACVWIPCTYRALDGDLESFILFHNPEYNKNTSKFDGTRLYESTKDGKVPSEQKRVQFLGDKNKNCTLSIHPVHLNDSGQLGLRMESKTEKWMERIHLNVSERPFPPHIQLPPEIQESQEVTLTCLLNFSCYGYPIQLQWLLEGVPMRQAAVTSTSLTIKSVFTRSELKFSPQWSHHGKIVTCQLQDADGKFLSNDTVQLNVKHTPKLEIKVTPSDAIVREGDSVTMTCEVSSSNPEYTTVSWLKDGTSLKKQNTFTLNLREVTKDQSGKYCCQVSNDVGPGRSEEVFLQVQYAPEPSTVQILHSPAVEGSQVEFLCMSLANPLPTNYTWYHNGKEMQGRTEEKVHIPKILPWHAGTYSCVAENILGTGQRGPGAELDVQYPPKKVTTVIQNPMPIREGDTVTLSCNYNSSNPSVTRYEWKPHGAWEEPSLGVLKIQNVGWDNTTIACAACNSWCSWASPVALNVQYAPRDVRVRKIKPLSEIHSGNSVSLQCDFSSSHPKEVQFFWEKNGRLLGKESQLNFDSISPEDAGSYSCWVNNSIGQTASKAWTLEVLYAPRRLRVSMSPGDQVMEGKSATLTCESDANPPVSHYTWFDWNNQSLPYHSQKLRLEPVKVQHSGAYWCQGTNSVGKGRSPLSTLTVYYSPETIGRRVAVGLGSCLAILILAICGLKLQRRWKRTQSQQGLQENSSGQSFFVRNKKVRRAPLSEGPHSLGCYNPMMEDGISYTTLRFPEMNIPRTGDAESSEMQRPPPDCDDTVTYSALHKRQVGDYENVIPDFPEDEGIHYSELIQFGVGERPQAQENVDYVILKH
Outline: as §1

[3] = biological target: cynomolgus Siglec-2/CD22 (Macaca fascicularis, UniProt A0A2K5WCZ6); test: biochemical; assay type: binding; settings: SPR, steady-state analysis; read-out: Affinity cyno CD22
cynomolgus Siglec-2/CD22, sequence (A0A2K5WCZ6 entry or part of it): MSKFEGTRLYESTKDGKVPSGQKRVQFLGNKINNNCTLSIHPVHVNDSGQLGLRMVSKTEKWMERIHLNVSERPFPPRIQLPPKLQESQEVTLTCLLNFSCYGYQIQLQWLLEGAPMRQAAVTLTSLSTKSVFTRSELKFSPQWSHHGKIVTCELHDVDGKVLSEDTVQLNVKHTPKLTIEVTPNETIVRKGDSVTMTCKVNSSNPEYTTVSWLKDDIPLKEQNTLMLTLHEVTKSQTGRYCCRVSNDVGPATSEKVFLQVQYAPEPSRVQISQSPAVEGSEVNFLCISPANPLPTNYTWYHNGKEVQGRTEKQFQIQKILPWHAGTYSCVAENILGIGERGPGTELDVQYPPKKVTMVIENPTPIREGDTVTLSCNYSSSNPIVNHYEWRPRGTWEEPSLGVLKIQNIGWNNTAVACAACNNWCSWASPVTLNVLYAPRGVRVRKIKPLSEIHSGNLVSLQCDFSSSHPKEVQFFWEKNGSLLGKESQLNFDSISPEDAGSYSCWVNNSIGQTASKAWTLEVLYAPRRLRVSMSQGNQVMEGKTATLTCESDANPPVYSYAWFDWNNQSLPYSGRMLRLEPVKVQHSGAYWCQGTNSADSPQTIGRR
Outline: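 SPR with desialylated (SialoExo, 4 h, 37° C.) cynomolgus CD22 amine-coupled to a CM5 chip. Running buffer 10 mM HEPES, 150 mM NaCl, 0.05% Tween-20, pH 7.5, 1% DMSO, with solvent correction; 120 s dissociation. Affinities from steady-state analysis.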

Kd [1] | Kd [2] | Kd [3] | SMILES
< 1000 nM | < 1000 nM | < 1000 nM | C#CCOCCCCCCO[C@]1(C(=O)O)C[C@H](O)[C@@H](NC(=O)CO)[C@H]([C@H](O)[C@H](O)CNC(=O)Cc2ccc(Cl)c(O)c2)O1 [Compound 128, (2R,4S,5R,6R)-6-((1R,2R)-3-(2-(4-chloro-3-hydroxyphenyl)acetamido)-1,2-dihydroxypropyl)-4-hydroxy-5-(2-hydroxyacetamido)-2-((6-(prop-2-yn-1-yloxy)hexyl)oxy)tetrahydro-2H-pyran-2-carboxylic acid]
1000 to 10000 nM | 1000 to 10000 nM | 1000 to 10000 nM | CC(=O)NCCOCCOCCOCCOCCNC(=O)CCOCCO[C@]1(C(=O)O)C[C@H](O)[C@@H](NC(=O)CO)[C@H]([C@H](O)[C@H](O)CNC(=O)Cc2ccc(-c3ccccc3)cc2)O1 [Compound 238, (2R,4S,5R,6R)-6-((1R,2R)-3-(2-([1,1′-biphenyl]-4-yl)acetamido)-1,2-dihydroxypropyl)-2-((2,19-dioxo-6,9,12,15,22-pentaoxa-3,18-diazatetracosan-24-yl)oxy)-4-hydroxy-5-(2-hydroxyacetamido) tetrahydro-2H-pyran-2-carboxylic acid]
1000 to 10000 nM | 1000 to 10000 nM | 1000 to 10000 nM | CC(=O)NCCOCCOCCOCCOCCNc1c(NCCOCCOCCO[C@]2(C(=O)O)C[C@H](O)[C@@H](NC(=O)CO)[C@H]([C@H](O)[C@H](O)CNC(=O)Cc3ccc(-c4ccccc4)cc3)O2)c(=O)c1=O [Cpd. 242, (2R,4S,5R,6R)-6-((1R,2R)-3-(2-([1,1′-biphenyl]-4-yl)acetamido)-1,2-dihydroxypropyl)-2-(2-(2-(2-((3,4-dioxo-2-((2-oxo-6,9,12,15-tetraoxa-3-azaheptadecan-17-yl)amino)cyclobut-1-en-1-yl)amino)ethoxy)ethoxy)ethoxy)-4-hydroxy-5-(2-hydroxyacetamido)tetrahydro-2H-pyran-2-carboxylic acid]
1000 to 10000 nM | < 1000 nM | < 1000 nM | CC(=O)NCCOCCOCCOCCOCCNC(=O)CCCCCCO[C@]1(C(=O)O)C[C@H](O)[C@@H](NC(=O)CO)[C@H]([C@H](O)[C@H](O)CNC(=O)Cc2ccc(C(F)F)cc2)O1 [Cpd. 257, (2R,4S,5R,6R)-6-((1R,2R)-3-(2-(4-(difluoromethyl)phenyl)acetamido)-1,2-dihydroxypropyl)-2-((2,19-dioxo-6,9,12,15-tetraoxa-3,18-diazapentacosan-25-yl)oxy)-4-hydroxy-5-(2-hydroxyacetamido)tetrahydro-2H-pyran-2-carboxylic acid]
> 10000 nM | 1000 to 10000 nM | > 10000 nM | C#CCOCCOCCO[C@]1(C(=O)O)C[C@H](O)[C@@H](NC(=O)CO)[C@H]([C@H](O)[C@H](O)CNC(=O)Cc2ccc(-c3cccnc3)cc2)O1 [Compound 82, (2R,4S,5R,6R)-6-((1R,2R)-1,2-dihydroxy-3-(2-(4-(pyridin-3-yl)phenyl)acetamido)propyl)-4-hydroxy-5-(2-hydroxyacetamido)-2-(2-(2-(prop-2-yn-1-yloxy)ethoxy)ethoxy)tetrahydro-2H-pyran-2-carboxylic acid]
1000 to 10000 nM | 1000 to 10000 nM | 1000 to 10000 nM | C#CCOCCCCCCO[C@]1(C(=O)O)C[C@H](O)[C@@H](NCC(=O)NC)[C@H]([C@H](O)[C@H](O)CNC(=O)Cc2ccc(Cl)cc2)O1 [Compound 181, (2R,4S,5R,6R)-6-((1R,2R)-3-(2-(4-chlorophenyl)acetamido)-1,2-dihydroxypropyl)-4-hydroxy-5-((2-(methylamino)-2-oxoethyl)amino)-2-((6-(prop-2-yn-1-yloxy)hexyl)oxy)tetrahydro-2H-pyran-2-carboxylic acid]

The remaining lines, values behind:

SMILES | Kd [1] | Kd [2] | Kd [3]
C#CCOC[C@H](O)[C@@H](O)CO[C@]1(C(=O)O)C[C@H](O)[C@@H](NC(=O)CO)[C@H]([C@H](O)[C@H](O)CNC(=O)Cc2ccc(Cl)cc2)O1 [Compound 24, (2R,4S,5R,6R)-6-((1R,2R)-3-(2-(4-chlorophenyl)acetamido)-1,2-dihydroxypropyl)-2-((2S,3S)-2,3-dihydroxy-4-(prop-2-yn-1-yloxy)butoxy)-4-hydroxy-5-(2-hydroxyacetamido)tetrahydro-2H-pyran-2-carboxylic acid] | > 10000 nM | 1000 to 10000 nM | 1000 to 10000 nM
C#CCCOc1ccc(CO[C@]2(C(=O)O)C[C@H](O)[C@@H](NC(=O)NC)[C@H]([C@H](O)[C@H](O)CNC(=O)Cc3ccc(-c4ccc(O)cc4)cc3)O2)cc1 [Compound 61, (2R,4S,5R,6R)-2-((4-(but-3-yn-1-yloxy)benzyl)oxy)-6-((1R,2R)-1,2-dihydroxy-3-(2-(4′-hydroxy-[1,1′-biphenyl]-4-yl)acetamido)propyl)-4-hydroxy-5-(3-methylureido)tetrahydro-2H-pyran-2-carboxylic acid] | < 1000 nM | < 1000 nM | < 1000 nM
C#CCCOc1ccc(CS[C@]2(C(=O)O)C[C@H](O)[C@@H](NC(=O)CO)[C@H]([C@H](O)[C@H](O)CNC(=O)Cc3ccc(O)cc3)O2)cc1 [Compound 148, (2S,4S,5R,6R)-2-((4-(but-3-yn-1-yloxy)benzyl)thio)-6-((1R,2R)-1,2-dihydroxy-3-(2-(4-hydroxyphenyl)acetamido)propyl)-4-hydroxy-5-(2-hydroxyacetamido)tetrahydro-2H-pyran-2-carboxylic acid] | < 1000 nM | < 1000 nM | 1000 to 10000 nM
C#CCN(CC(=O)O)C(=O)CCCO[C@]1(C(=O)O)C[C@H](O)[C@@H](NC(=O)CO)[C@H]([C@H](O)[C@H](O)CNC(=O)Cc2ccc(Cl)cc2)O1 [Compound 101, (2R,4S,5R,6R)-2-(4-((carboxymethyl)(prop-2-yn-1-yl)amino)-4-oxobutoxy)-6-((1R,2R)-3-(2-(4-chlorophenyl)acetamido)-1,2-dihydroxypropyl)-4-hydroxy-5-(2-hydroxyacetamido)tetrahydro-2H-pyran-2-carboxylic acid] | 1000 to 10000 nM | 1000 to 10000 nM | 1000 to 10000 nM
C#CCOCCOCCO[C@]1(C(=O)O)C[C@H](O)[C@@H](NC(=O)CO)[C@H]([C@H](O)[C@H](O)CNC(=O)Cc2ccc(-c3ccccc3)c(O)c2)O1 [Compound 66, (2R,4S,5R,6R)-6-((1R,2R)-1,2-dihydroxy-3-(2-(2-hydroxy-[1,1′-biphenyl]-4-yl)acetamido)propyl)-4-hydroxy-5-(2-hydroxyacetamido)-2-(2-(2-(prop-2-yn-1-yloxy)ethoxy)ethoxy)tetrahydro-2H-pyran-2-carboxylic acid] | > 10000 nM | 1000 to 10000 nM | > 10000 nM
C#CCOCCCCCCO[C@]1(C(=O)O)C[C@H](O)[C@@H](NC(=O)COc2ccccc2)[C@H]([C@H](O)[C@H](O)CNC(=O)Cc2ccc(Cl)cc2)O1 [Compound 91, (2R,4S,5R,6R)-6-((1R,2R)-3-(2-(4-chlorophenyl)acetamido)-1,2-dihydroxypropyl)-4-hydroxy-5-(2-phenoxyacetamido)-2-((6-(prop-2-yn-1-yloxy)hexyl)oxy)tetrahydro-2H-pyran-2-carboxylic acid] | > 10000 nM | 1000 to 10000 nM | < 1000 nM
